Assay results from patent publication US10508104B2, “6-hydroxy-5-(phenyl/heteroarylsulfonyl)pyrimidin-4(1H)-one as APJ agonists” (Bristol-Myers Squibb Company, priority 2016, dated 2019).

Biological target: human APJ receptor (Homo sapiens (Human), UniProt P35414)
Assay: Intracellular cAMP accumulation assay (APJ hcAMP, HTRF)
Type: cell-based
Conditions: human APJ, cAMP accumulation; read-out: Human APJ cAMP EC50 Potency range
How it was run: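 HEK293 cells stably expressing human APJ, 5,000 per well, incubated 30 min at rt with compound, […] and 2 μM forskolin. cAMP measured by HTRF against a cAMP standard curve as inhibition of forskolin-driven production. EC50 from variable-slope sigmoidal fit.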

human APJ receptor, sequence (P35414 whole entry): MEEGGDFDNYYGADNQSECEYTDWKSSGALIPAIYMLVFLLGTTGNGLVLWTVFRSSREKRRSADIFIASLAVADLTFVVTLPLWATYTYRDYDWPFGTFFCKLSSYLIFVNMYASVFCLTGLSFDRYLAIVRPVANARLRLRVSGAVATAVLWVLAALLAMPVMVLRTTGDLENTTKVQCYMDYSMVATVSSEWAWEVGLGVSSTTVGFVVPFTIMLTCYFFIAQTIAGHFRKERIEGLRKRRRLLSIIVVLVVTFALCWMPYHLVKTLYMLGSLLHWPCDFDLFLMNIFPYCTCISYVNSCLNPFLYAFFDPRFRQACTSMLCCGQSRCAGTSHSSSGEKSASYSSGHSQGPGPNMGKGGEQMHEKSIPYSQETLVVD

Row | SMILES | EC50 [nM]
1 | CCCCc1nc(=O)c(S(=O)(=O)c2ccc(-c3cnc(C)nc3)cc2)c(O)n1[C@@H](CC)c1ccccc1 [Example 292, 2-butyl-6-hydroxy-5-[4-(2-methylpyrimidin-5-yl)benzenesulfonyl]-1-[(1S)-1-phenylpropyl]-1,4-dihydropyrimidin-4-one] | 10 to 100
2 | COC[C@@H](c1ccccc1)n1c(COC(C)C)nc(=O)c(S(=O)(=O)c2ccc(Br)cc2)c1O [Example 295, 5-(4-bromobenzenesulfonyl)-6-hydroxy-1-[(1R)-2-methoxy-1-phenylethyl]-2-[(propan-2-yloxy)methyl]-1,4-dihydropyrimidin-4-one] | 10 to 100
3 | CCOCc1nc(=O)c(S(=O)(=O)c2ccc(Br)cc2)c(O)n1[C@@H](COC)c1ccccc1 [Example 296, 5-(4-bromobenzenesulfonyl)-2-(ethoxymethyl)-6-hydroxy-1-[(1R)-2-methoxy-1-phenylethyl]-1,4-dihydropyrimidin-4-one] | 100 to 300
4 | CCOCc1nc(=O)c(S(=O)(=O)c2ccc(Br)cc2)c(O)n1[C@H]1CCc2ccccc21 [Example 297, 5-(4-bromobenzenesulfonyl)-1-[(1S)-2,3-dihydro-1H-inden-1-yl]-2-(ethoxymethyl)-6-hydroxy-1,4-dihydropyrimidin-4-one] | 10 to 100
5 | CC(C)OCc1nc(=O)c(S(=O)(=O)c2ccc(Br)cc2)c(O)n1[C@H]1CCc2ccccc21 [Example 299, 5-(4-bromobenzenesulfonyl)-1-[(1S)-2,3-dihydro-1H-inden-1-yl]-6-hydroxy-2-[(propan-2-yloxy)methyl]-1,4-dihydropyrimidin-4-one] | 10 to 100
6 | CCCCc1nc(=O)c(S(=O)(=O)c2ccc(Br)cc2)c(O)n1[C@@H](CC)c1cccc(C#N)c1 [Example 302, 3-[(1S)-1-[5-(4-bromobenzenesulfonyl)-2-butyl-4-hydroxy-6-oxo-1,6-dihydropyrimidin-1-yl]propyl]benzonitrile] | 0.01 to 10
7 | CCOCc1nc(=O)c(S(=O)(=O)c2ccc(C3CC3)cc2)c(O)n1[C@H]1CCc2ccccc21 [Example 303, 5-(4-cyclopropylbenzene-sulfonyl)-1-[(1S)-2,3-dihydro-1H-inden-1-yl]-2-(ethoxymethyl)-6-hydroxy-1,4-dihydropyrimidin-4-one] | 0.01 to 10
8 | COC[C@@H](c1ccccc1)n1c(COC(C)C)nc(=O)c(S(=O)(=O)c2ccc(-c3ccc(F)nc3C)c(F)c2)c1O [Example 304, 5-[3-fluoro-4-(6-fluoro-2-methylpyridin-3-yl)benzenesulfonyl]-6-hydroxy-1-[(1R)-2-methoxy-1-phenylethyl]-2-[(propan-2-yloxy)methyl]-1,4-dihydropyrimidin-4-one] | 0.01 to 10
9 | CCOCc1nc(=O)c(S(=O)(=O)c2ccc(-c3ccc(F)nc3)cc2)c(O)n1[C@@H](CC)c1ccccc1 [Example 305, 2-(ethoxymethyl)-5-[4-(6-fluoropyridin-3-yl)benzenesulfonyl]-6-hydroxy-1-[(1S)-1-phenylpropyl]-1,4-dihydropyrimidin-4-one] | 0.01 to 10
10 | CCOCc1nc(=O)c(S(=O)(=O)c2ccc(-c3ccncc3C)cc2)c(O)n1[C@@H](CC)c1ccccc1 [Example 306, 2-(ethoxymethyl)-6-hydroxy-5-[4-(3-methylpyridin-4-yl)benzenesulfonyl]-1-[(1S)-1-phenylpropyl]-1,4-dihydropyrimidin-4-one] | 0.01 to 10
11 | CCOCc1nc(=O)c(S(=O)(=O)c2ccc(-c3ccnc(F)c3C)cc2)c(O)n1[C@@H](CC)c1ccccc1 [Example 307, 2-(ethoxymethyl)-5-[4-(2-fluoro-3-methylpyridin-4-yl)benzenesulfonyl]-6-hydroxy-1-[(1S)-1-phenylpropyl]-1,4-dihydropyrimidin-4-one] | 0.01 to 10
12 | CCOCc1nc(=O)c(S(=O)(=O)c2ccc(-c3ccc(F)nc3C)cc2)c(O)n1[C@@H](CC)c1ccccc1 [Example 308, 2-(ethoxymethyl)-5-[4-(6-fluoro-2-methylpyridin-3-yl)benzenesulfonyl]-6-hydroxy-1-[(1S)-1-phenylpropyl]-1,4-dihydropyrimidin-4-one] | 0.01 to 10
13 | CCOCc1nc(=O)c(S(=O)(=O)c2ccc(-c3ccc(OC)nc3C)cc2)c(O)n1[C@@H](CC)c1ccccc1 [Example 309, 2-(ethoxymethyl)-6-hydroxy-5-[4-(6-methoxy-2-methylpyridin-3-yl)benzenesulfonyl]-1-[(1S)-1-phenylpropyl]-1,4-dihydropyrimidin-4-one] | 0.01 to 10
14 | CCOCc1nc(=O)c(S(=O)(=O)c2ccc(-c3cccnc3C)cc2)c(O)n1[C@@H](CC)c1ccccc1 [Example 310, 2-(ethoxymethyl)-6-hydroxy-5-[4-(2-methylpyridin-3-yl)benzenesulfonyl]-1-[(1S)-1-phenylpropyl]-1,4-dihydropyrimidin-4-one] | 0.01 to 10
15 | CC[C@@H](c1ccccc1)n1c(COC(C)C)nc(=O)c(S(=O)(=O)c2ccc(-c3ccc(F)nc3C)cc2)c1O [Example 311, 5-[4-(6-fluoro-2-methylpyridin-3-yl)benzenesulfonyl]-6-hydroxy-1-[(1S)-1-phenylpropyl]-2-[(propan-2-yloxy)methyl]-1,4-dihydropyrimidin-4-one] | 0.01 to 10
16 | CC[C@@H](c1ccccc1)n1c(COC(C)C)nc(=O)c(S(=O)(=O)c2ccc(-c3ccnc(F)c3C)cc2)c1O [Example 312, 5-[4-(2-fluoro-3-methylpyridin-4-yl)benzenesulfonyl]-6-hydroxy-1-[(1S)-1-phenylpropyl]-2-[(propan-2-yloxy)methyl]-1,4-dihydropyrimidin-4-one] | 0.01 to 10
17 | CC[C@@H](c1ccccc1)n1c(COC(C)C)nc(=O)c(S(=O)(=O)c2ccc(-c3cccnc3C)cc2)c1O [Example 313, 6-hydroxy-5-[4-(2-methylpyridin-3-yl)benzenesulfonyl]-1-[(1S)-1-phenylpropyl]-2-[(propan-2-yloxy)methyl]-1,4-dihydropyrimidin-4-one] | 0.01 to 10
18 | CC[C@@H](c1ccccc1)n1c(COC(C)C)nc(=O)c(S(=O)(=O)c2ccc(-c3ccncc3C)cc2)c1O [Example 314, 6-hydroxy-5-[4-(3-methylpyridin-4-yl)benzenesulfonyl]-1-[(1S)-1-phenylpropyl]-2-[(propan-2-yloxy)methyl]-1,4-dihydropyrimidin-4-one] | 0.01 to 10
19 | CCOCc1nc(=O)c(S(=O)(=O)c2ccc(-c3ccncc3C)cc2)c(O)n1[C@@H](COC)c1ccccc1 [Example 315, 2-(ethoxymethyl)-6-hydroxy-1-[(1R)-2-methoxy-1-phenylethyl]-5-[4-(3-methylpyridin-4-yl)benzenesulfonyl]-1,4-dihydropyrimidin-4-one] | 0.01 to 10
20 | CCOCc1nc(=O)c(S(=O)(=O)c2ccc(-c3ccnc(F)c3C)cc2)c(O)n1[C@@H](COC)c1ccccc1 [Example 316, 2-(ethoxymethyl)-5-[4-(2-fluoro-3-methylpyridin-4-yl)benzenesulfonyl]-6-hydroxy-1-[(1R)-2-methoxy-1-phenylethyl]-1,4-dihydropyrimidin-4-one] | 0.01 to 10

The remaining lines, values ahead:

Row | EC50 [nM] | SMILES
21 | 0.01 to 10 | CCCCc1nc(=O)c(S(=O)(=O)c2ccc(-n3cc(Cl)ccc3=O)cc2)c(O)n1[C@@H](COC)c1ccccc1 [Example 288, 2-butyl-5-[4-(5-chloro-2-oxo-1,2-dihydropyridin-1-yl)benzenesulfonyl]-6-hydroxy-1-[(1R)-2-methoxy-1-phenylethyl]-1,4-dihydropyrimidin-4-one]
22 | 0.01 to 10 | CCCCc1nc(=O)c(S(=O)(=O)c2ccc(-c3ccc(F)nc3)cc2)c(O)n1[C@@H](CC)c1ccccc1 [Example 289, 2-butyl-5-[4-(6-fluoropyridin-3-yl)benzenesulfonyl]-6-hydroxy-1-[(1S)-1-phenylpropyl]-1,4-dihydropyrimidin-4-one]
23 | 0.01 to 10 | CCCCc1nc(=O)c(S(=O)(=O)c2ccc(-c3cncc(F)c3)cc2)c(O)n1[C@@H](CC)c1ccccc1 [Example 290, 2-butyl-5-[4-(5-fluoropyridin-3-yl)benzenesulfonyl]-6-hydroxy-1-[(1S)-1-phenylpropyl]-1,4-dihydropyrimidin-4-one]
24 | 0.01 to 10 | CCCCc1nc(=O)c(S(=O)(=O)c2ccc(-c3ccncc3C)cc2)c(O)n1[C@@H](CC)c1ccccc1 [Example 291, 2-butyl-6-hydroxy-5-[4-(3-methylpyridin-4-yl)benzenesulfonyl]-1-[(1S)-1-phenylpropyl]-1,4-dihydropyrimidin-4-one]
25 | 0.01 to 10 | CCCCc1nc(=O)c(S(=O)(=O)c2ccc(-c3cncc(C)c3)cc2)c(O)n1[C@@H](CC)c1ccccc1 [Example 293, 2-butyl-6-hydroxy-5-[4-(5-methylpyridin-3-yl)benzenesulfonyl]-1-[(1S)-1-phenylpropyl]-1,4-dihydropyrimidin-4-one]
26 | 0.01 to 10 | COC[C@@H](c1ccccc1)n1c(COC(C)C)nc(=O)c(S(=O)(=O)c2ccc(Br)c(F)c2)c1O [Example 294, 5-(4-bromo-3-fluorobenzenesulfonyl)-6-hydroxy-1-[(1R)-2-methoxy-1-phenylethyl]-2-[(propan-2-yloxy)methyl]-1,4-dihydropyrimidin-4-one]
27 | 0.01 to 10 | CCOCc1nc(=O)c(S(=O)(=O)c2ccc(Br)c(F)c2)c(O)n1C(COC)c1cccc(F)c1 (centres unmarked) [Example 298, 5-(4-bromo-3-fluorobenzenesulfonyl)-2-(ethoxymethyl)-1-[1-(3-fluorophenyl)-2-methoxyethyl]-6-hydroxy-1,4-dihydropyrimidin-4-one]
28 | 0.01 to 10 | CCOCc1nc(=O)c(S(=O)(=O)c2ccc(Br)c(F)c2)c(O)n1[C@@H](COC)c1ccccc1 [Example 300, 5-(4-bromo-3-fluorobenzenesulfonyl)-2-(ethoxymethyl)-6-hydroxy-1-[(1R)-2-methoxy-1-phenylethyl]-1,4-dihydropyrimidin-4-one]
29 | 0.01 to 10 | CCOCc1nc(=O)c(S(=O)(=O)c2ccc(Br)c(F)c2)c(O)n1[C@@H](COC)c1cccc(C#N)c1 [Example 301, 3-[(1R)-1-[5-(4-bromo-3-fluorobenzenesulfonyl)-2-(ethoxymethyl)-6-hydroxy-4-oxo-1,4-dihydropyrimidin-1-yl]-2-methoxyethyl] benzonitrile]
